Consider twelve compounds from US20240300948A1, “Heterocyclic Compounds As Kinase Inhibitors” (Incyte Corporation, priority 2023, published 2024).

The target in assay [1] is T1, catalytic domain (JH1, amino acids 826-1132) of human JAK2 (Homo sapiens, UniProt O60674).
T1 construct: catalytic domain (JH1, amino acids 826-1132) of human JAK2; FLAG (N); purchased Carna Biosciences 08-445-20N; host or cells: baculovirus expression system
The assay is described as follows: JAK2 LanthaScreen JH1 binding assay. The following applies: 50 nM tracer, 2 hours at 25° C., read-out: JH1 BIND IC50. On the procedure: Example A. JAK2 LanthaScreen […] Binding Assay
JAK2 JH1 binding assay utilizes catalytic domain (JH1, amino acids 826-1132) of human JAK2 expressed as N-terminal FLAG-tagged, biotinylated protein in a baculovirus expression system (Carna Biosciences, Product #08-445-20N). The assay was conducted in black 384-well polystyrene plates in a final reaction volume of 20 μL. JAK2 JH1 (1.5 nM) was incubated with compounds (100 nL serially diluted in DMSO) in the presence of 50 nM fluorescent JAK2-JH1 tracer and 0.5 nM Streptavidin-Tb cryptate (Cisbio Part #610SATLB) in assay buffer (50 mM Tris, pH=7.5, 10 mM MgCl2, 0.01% Brij-35, 0.1% BSA, 1 mM EGTA, 5% Glycerol and 5 mM DTT). Non-specific binding was accessed in the presence of 2 mM ATP. After incubation for 2 hours at 25° C., LanthaScreen signals were read on a PHERAstar FS plate reader (BMG LABTECH). Data was analyzed with IDBS XLfit and GraphPad Prism 5.0 software using a four parameter dose response curve to determine IC50 for each compound.

Assay [2] deals with T2, pseudo-kinase domain (JH2, amino-acids 536-812 with 3 surface mutations W659A, W777A, F794H) of human Wild Type JAK2 (Homo sapiens, UniProt O60674, F794H/W659A/W777A).
T2 construct: pseudo-kinase domain (JH2, amino-acids 536-812 with 3 surface mutations W659A, W777A, F794H); His (C); Avi (biotinylated) (C); purchased BPS Bioscience 79463; host or cells: baculovirus expression system
T2 sequence (O60674 536-812 W659A/W777A/F794H): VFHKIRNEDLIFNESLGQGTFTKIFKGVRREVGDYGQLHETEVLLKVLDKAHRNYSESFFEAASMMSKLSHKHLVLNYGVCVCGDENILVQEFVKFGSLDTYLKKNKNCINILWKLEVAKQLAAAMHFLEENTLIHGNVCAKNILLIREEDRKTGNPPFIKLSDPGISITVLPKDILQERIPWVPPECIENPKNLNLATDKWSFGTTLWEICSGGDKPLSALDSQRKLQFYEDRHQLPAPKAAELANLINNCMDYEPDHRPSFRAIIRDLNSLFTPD
Description: JAK2 LanthaScreen JH2-WT binding assay. The conditions noted are these: 50 nM tracer, 1 hour at 25° C., read-out: JH2 BIND WT IC50. On the procedure: Example B. JAK2 LanthaScreen JH2-WT Binding Assay
(§1) JAK2 JH2-WT binding assay utilizes pseudo-kinase domain (JH2, amino-acids 536-812 with 3 surface mutations W659A, W777A, F794H) of human Wild Type JAK2 expressed as C-terminal His-Avi-tagged, biotinylated protein in a baculovirus expression system (BPS Bioscience, Catalog #79463). The assay was conducted in black 384-well polystyrene plates in a final reaction volume of 20 μL. JAK2 JH2-WT (0.145 nM) was incubated with compounds (100 nL serially diluted in DMSO) in the presence of 50 nM Fluorescent JAK2-JH2 Tracer (MedChem Express Catalog #HY-102055) and 0.25 nM Streptavidin-Tb cryptate (Cisbio Part #610SATLB) in assay buffer (50 mM Tris, pH=7.5, 10 mM MgCl2, 0.01% Brij-35, 0.1% BSA, 1 mM EGTA, 5% Glycerol and 5 mM DTT). Non-specific binding was accessed in the presence of 2 mM ATP. After incubation for 1 hour at 25° C., LanthaScreen signals were read on a PHERAstar FS plate reader (BMG LABTECH). Data was analyzed with IDBS XLfit and GraphPad Prism 5.0 software using a four parameter dose response curve to determine IC50 for each compound.

Assay [3] concerns the target T3, pseudo-kinase domain (JH2, amino-acids 536-812 with 3 surface mutations W659A, W777A, F794H) of human V617F mutant JAK2 (Homo sapiens, UniProt O60674, F794H/V617F/W659A/W777A).
T3 construct: pseudo-kinase domain (JH2, amino-acids 536-812 with 3 surface mutations W659A, W777A, F794H); His (C); Avi (biotinylated) (C); purchased BPS Bioscience 79498; host or cells: baculovirus expression system
Description: JAK2 LanthaScreen JH2-V617F binding assay. The following applies: 50 nM tracer, 1 hour at 25° C., read-out: JH2 BIND V617F IC50. On the procedure:
Example C. JAK2 LanthaScreen JH2-V617F Binding Assay
as §1, with “JH2-V617F” for “JH2-WT”, “V617F mutant” for “Wild Type”, “#79498).” for “#79463).”, “JH2-V617F (0.26” for “JH2-WT (0.145”

The structures appear in SMILES notation.

T1 sequence (O60674 826-1132): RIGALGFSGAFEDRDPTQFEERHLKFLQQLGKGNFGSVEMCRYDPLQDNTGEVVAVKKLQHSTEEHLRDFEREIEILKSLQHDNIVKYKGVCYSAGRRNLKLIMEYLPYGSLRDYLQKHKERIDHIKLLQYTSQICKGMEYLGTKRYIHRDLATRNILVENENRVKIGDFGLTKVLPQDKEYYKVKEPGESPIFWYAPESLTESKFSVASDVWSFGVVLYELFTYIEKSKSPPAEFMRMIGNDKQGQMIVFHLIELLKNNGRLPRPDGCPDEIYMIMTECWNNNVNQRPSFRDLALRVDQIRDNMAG
T3 sequence (O60674 536-812 V617F/W659A/W777A/F794H): as the sequence (O60674 536-812 W659A/W777A/F794H) above, with V82F counted along it

Regarding `CC(C)n1ncc2cc(-c3c(-c4cnn(C)c4)[nH]c4ncc5c(c34)N(C3CCN(S(C)(=O)=O)CC3)C(=O)NC5)ccc21` [Example 16, 9-(1-Isopropyl-1H-indazol-5-yl)-8-(1-methyl-1H-pyrazol-4-yl)-1-(1-(methylsulfonyl)piperidin-4-yl)-1,3,4,7-tetrahydro-2H-pyrrolo [3′,2′:5,6]pyrido[4,3-d]pyrimidin-2-one], the 50% inhibitory concentration (IC50) in assay [1] was over 1000 nM; in assay [2], 10 to 100 nM; in assay [3], 10 to 100 nM.
For `COC(=O)N[C@@H]1CC[C@@H](n2c(=O)nc(N(C)C)c3cnc4[nH]c(-c5cnn(C)c5)c(-c5ccc6c(cnn6C(C)C)c5)c4c32)C1` [Example 43, Methyl ((1R,3R)-3-(4-(dimethylamino)-9-(1-isopropyl-1H-indazol-5-yl)-8-(1-methyl-1H-pyrazol-4-yl)-2-oxo-2,7-dihydro-1H-pyrrolo[3′,2′:5,6]pyrido[4,3-d]pyrimidin-1-yl)cyclopentyl)carbamate], the IC50 in assay [1] was over 1000 nM; in assay [2] it was 100 to 500 nM; in assay [3] it was 100 to 500 nM.
As for `COC(=O)N[C@@H]1CC[C@@H](N2C(=O)NCc3cnc4[nH]c(-c5cnn(C)c5)c(-c5ccc6c(cnn6C)c5)c4c32)C1` [Example 29, Methyl ((1R,3R)-3-(9-(1-methyl-1H-indazol-5-yl)-8-(1-methyl-1H-pyrazol-4-yl)-2-oxo-2,3,4,7-tetrahydro-1H-pyrrolo[3′,2′:5,6]pyrido[4,3-d]pyrimidin-1-yl)cyclopentyl) carbamate], the figures for the IC50 in assay [1], in assay [2] and in assay [3] were over 1000 nM, at most 10 nM and 10 to 100 nM, respectively.
For `CC(C)n1ncc2cc(-c3c(-c4cnn(C)c4)[nH]c4ncc5c(c34)N([C@H]3C[C@@H](NS(C)(=O)=O)C3)C(=O)NC5)ccc21` [Example 6, N-((1s,3s)-3-(9-(1-Isopropyl-1H-indazol-5-yl)-8-(1-methyl-1H-pyrazol-4-yl)-2-oxo-2,3,4,7-tetrahydro-1H-pyrrolo[3′,2′:5,6]pyrido[4,3-d]pyrimidin-1-yl)cyclobutyl) methanesulfonamide] the same measures were 100 to 500 nM, at most 10 nM and 10 to 100 nM.
As for `CC(=O)N1CCC(N2C(=O)NCc3cnc4[nH]c(-c5cnn(C)c5)c(-c5ccc6c(cnn6C(C)C)c5)c4c32)CC1` [Example 15, 1-(1-Acetylpiperidin-4-yl)-9-(1-isopropyl-1H-indazol-5-yl)-8-(1-methyl-1H-pyrazol-4-yl)-1,3,4,7-tetrahydro-2H-pyrrolo [3′,2′:5,6]pyrido[4,3-d]pyrimidin-2-one], the IC50 in assay [1] was over 1000 nM; in assay [2], 10 to 100 nM; in assay [3] it was 10 to 100 nM.
For the compound `CC(C)n1ncc2cc(-c3c(-c4cnn(C)c4)[nH]c4ncc5c(c34)N([C@H]3C[C@H](NS(C)(=O)=O)C3)C(=O)NC5)ccc21` [Example 3, N-((1r,3r)-3-(9-(1-Isopropyl-1H-indazol-5-yl)-8-(1-methyl-1H-pyrazol-4-yl)-2-oxo-2,3,4,7-tetrahydro-1H-pyrrolo[3′,2′:5,6]pyrido[4,3-d]pyrimidin-1-yl)cyclobutyl) methan esulfonamide], the IC50 in assay [1] was 10 to 100 nM; in assay [2], at most 10 nM; in assay [3], at most 10 nM.
For the compound `COC(=O)N[C@@H]1CC[C@@H](n2c(=O)ncc3cnc4[nH]c(-c5cnn(C)c5)c(-c5ccc6c(cnn6C)c5)c4c32)C1` [Example 37, Methyl ((1R,3R)-3-(9-(1-methyl-1H-indazol-5-yl)-8-(1-methyl-1H-pyrazol-4-yl)-2-oxo-2,7-dihydro-1H-pyrrolo[3′,2′:5,6]pyrido[4,3-d]pyrimidin-1-yl)cyclopentyl)carbamate], the IC50 was over 1000 nM in assay [1], 100 to 500 nM in assay [2] and 100 to 500 nM in assay [3].
Take `COC(=O)N[C@@H]1CC[C@@H](N2C(=O)NCc3cnc4[nH]c(-c5cnn(C)c5)c(-c5cccc(F)c5)c4c32)C1` [Example 31, Methyl ((1R,3R)-3-(9-(3-fluorophenyl)-8-(1-methyl-1H-pyrazol-4-yl)-2-oxo-2,3,4,7-tetrahydro-1H-pyrrolo[3′,2′:5,6]pyrido[4,3-d]pyrimidin-1-yl)cyclopentyl) carbamate]: the IC50 in assay [1] is over 1000 nM; in assay [2] it was 10 to 100 nM; in assay [3], 100 to 500 nM.
For the compound `COCc1ccc(-c2c(-c3cnn(C)c3)[nH]c3ncc4c(c23)N([C@@H]2CC[C@@H](NC(=O)OC)C2)C(=O)NC4)cc1` [Example 32, Methyl ((1R,3R)-3-(9-(4-(methoxymethyl)phenyl)-8-(1-methyl-1H-pyrazol-4-yl)-2-oxo-2,3,4,7-tetrahydro-1H-pyrrolo[3′,2′:5,6]pyrido[4,3-d]pyrimidin-1-yl)cyclopentyl) carbamate], the IC50 in assay [1] was in the range of 500 to 1000 nM; in assay [2], 10 to 100 nM; in assay [3], 10 to 100 nM.
For `COC(=O)N[C@H]1C[C@H](N2C(=O)NC(C)c3cnc4[nH]c(-c5cnn(C)c5)c(-c5ccc6c(cnn6C(C)C)c5)c4c32)C1` (mixture of isomers) [Example 38, Methyl ((1r,3r)-3-(9-(1-isopropyl-1H-indazol-5-yl)-4-methyl-8-(1-methyl-1H-pyrazol-4-yl)-2-oxo-2,3,4,7-tetrahydro-1H-pyrrolo[3′,2′:5,6]pyrido[4,3-d]pyrimidin-1-yl)cyclobutyl)carbamate], the IC50 in assay [1] is over 1000 nM; in assay [2], 10 to 100 nM; in assay [3], 10 to 100 nM.
For the compound `COC(=O)N[C@H]1C[C@@H](N2C(=O)NCc3cnc4[nH]c(-c5cnn(C)c5)c(-c5ccc6c(cnn6C(C)C)c5)c4c32)C1` [Example 4, Methyl ((1s,3s)-3-(9-(1-isopropyl-1H-indazol-5-yl)-8-(1-methyl-1H-pyrazol-4-yl)-2-oxo-2,3,4,7-tetrahydro-1H-pyrrolo[3′,2′:5,6]pyrido[4,3-d]pyrimidin-1-yl)cyclobutyl) carbamate], the IC50 in assay [1] was over 1000 nM; in assay [2] it was 10 to 100 nM; in assay [3], 10 to 100 nM.
Turning to `CC(C)n1ncc2cc(-c3c(-c4cnn(C)c4)[nH]c4ncc5c(c34)N([C@H]3CC[C@@H]3NC(=O)NCC(F)F)C(=O)NC5)ccc21` (racemic) [Example 8, N-(2,2-Difluoroethyl)-3-(trans-2-(9-(1-isopropyl-1H-indazol-5-yl)-8-(1-methyl-1H-pyrazol-4-yl)-2-oxo-2,3,4,7-tetrahydro-1H-pyrrolo[3′,2′:5,6]pyrido[4,3-d]pyrimidin-1-yl)cyclobutyl)urea], the IC50 is over 1000 nM in assay [1], 10 to 100 nM in assay [2] and 100 to 500 nM in assay [3].
